Experimental data taken from patent publication US9023878B2 (Neurophyxia B.V., priority 2010, dated 2015).
Values joined by “and” are separate entries in the source; they are usually repeats but may differ in a detail not shown here. Equal entries are not always repeated.

Experiments:
[1] = Solubility in citrate buffers (excess 2-IB, filtered, RP-HPLC); format: physicochemical
Protocol: An excess of 2-IB was added to citrate buffers, mixed at room temperature and then filtered to remove nonsolubilised 2-IB.

[2] = Novel excipients (Cremophor EL, Solutol HS 15): 2-IB content of formulations at t=0 and after 48 hours; details: for Concentration t = 0 / Concentration t = 48 h: Solutol HS 15 formulation
Protocol: Finally two novel excipients were tested, Cremophor EL and Solutol HS 15.
A range of 2-IB formulations were prepared that were stored for 48 hours and measured for 2-IB content:

[3] = Visual inspection after 12 hours storage at 5° C.; format: physicochemical
[4] = Solubility/encapsulation in cyclodextrin solutions (excess 2-IB, three days, filtered, RP-HPLC)
Protocol: An excess of 2-IB was added to the cyclodextrin solutions, mixed at room temperature for three days and then filtered to remove non-encapsulated) non-solubilised 2-IB.

[5] = nominal 5.0 mg/ml, pH 2.4, after filtration
[6] = nominal 5.0 mg/ml, pH 2.8, after filtration
[7] = nominal 5.0 mg/ml, pH 3.0, after filtration
[8] = nominal 5.0 mg/ml, pH 3.5, after filtration
[9] = nominal 5.0 mg/ml, pH 3.6, after filtration
[10] = nominal 5.0 mg/ml, pH 3.8, after filtration
[11] = nominal 5.0 mg/ml, pH 10.2, after filtration
[12] = nominal 10 mg/ml, pH 3.0, after filtration
[13] = nominal 10 mg/ml, pH 3.5, after filtration
[14] = nominal 20 mg/ml, pH 3.0, after filtration
[15] = nominal 20 mg/ml, pH 3.5, after filtration

In the case of N=C1N[C@H]2[C@H](CS[C@H]2CCCCC(=O)O)N1 [Formulation 2-IB, 2-iminobiotin], the “Conc. 2IB” value ([1]; 50 mM Citrate pH 3.0, final pH 3.07, room temperature) is reported as 11000 µg/mL and 11270 µg/mL, the “Conc. 2IB” value ([1]; 50 mM Citrate pH 3.5, final pH 3.52) is reported as 4450 µg/mL and the “Conc. 2IB” value ([1]; 50 mM Citrate pH 4.0, final pH 4.03) is reported as 1720 µg/mL. For the same molecule, the “Conc. 2IB” value ([1]; 50 mM Citrate pH 4.5, final pH 4.54) was 860 µg/mL, the “Conc. 2IB” value ([1]; 50 mM Citrate pH 5.0, final pH 5.02) was 590 µg/mL and the “Solutol HS 15 concentration giving optimal solubility” value ([2]; 5-10-15-20-25% Solutol HS 15 tested at approximately 5 mg/ml) was 20%. For the same molecule, the “pH at which the formulation could be prepared” value ([2]; 20% Solutol HS 15 and 5% Dextrose in water) was 3.5-3.6, the “Concentration t = 0” value [2, 5] was 5650 µg/mL and the “Concentration t = 48 h” value [2, 5] was 4780 µg/mL. The “Concentration t = 0” value [2, 6] was 5430 µg/mL, the “Concentration t = 48 h” value [2, 6] was 5450 µg/mL and the “Concentration t = 0” value [2, 7] was 4640 µg/mL. The “Concentration t = 48 h” value [2, 7] was 4870 µg/mL, the “Concentration t = 0” value [2, 8] was 5210 µg/mL and the “Concentration t = 48 h” value [2, 8] was 4940 µg/mL. For the same molecule, the “Concentration t = 0” value [2, 9] was 4520 µg/mL, the “Concentration t = 48 h” value [2, 9] was 3930 µg/mL and the “Concentration t = 0” value [2, 10] was 5100 µg/mL. For the same molecule, the “Concentration t = 48 h” value [2, 10] was 2620 µg/mL, the “Concentration t = 0” value [2, 11] was 5710 µg/mL and the “Concentration t = 48 h” value [2, 11] was 0 µg/mL. For the same molecule, the “Concentration t = 0” value [2, 12] was 9060 µg/mL, the “Concentration t = 48 h” value [2, 12] was 8640 µg/mL and the “Concentration t = 0” value [2, 13] was 8300 µg/mL. The “Concentration t = 48 h” value [2, 13] was 8040 µg/mL, the “Concentration t = 0” value [2, 14] was 16600 µg/mL and the “Concentration t = 48 h” value [2, 14] was 16700 µg/mL. For the same molecule, the “Concentration t = 0” value [2, 15] was 14700 µg/mL, the “Concentration t = 48 h” value [2, 15] was 13200 µg/mL and the “Appearance after 12 hours at 5° C.” value ([3]; saturated in 50 mM Citrate pH 3.0) was “Precipitated”. For the same molecule, the “Appearance after 12 hours at 5° C.” value ([3]; saturated in 50 mM Citrate pH 3.5) was “Precipitated”, the “Appearance after 12 hours at 5° C.” value ([3]; saturated in 50 mM Citrate pH 4.0) was “Precipitated” and the “Appearance after 12 hours at 5° C.” value ([3]; saturated in 50 mM Citrate pH 4.5) was “Precipitated”. For the same molecule, the “Appearance after 12 hours at 5° C.” value ([3]; saturated in 50 mM Citrate pH 5.0) was “Precipitated”, the “concentration of 2-IB” value ([4]; 0% cyclodextrin, Citrate pH 4.0, final pH 4.0) was 1700 µg/mL and the “concentration of 2-IB” value ([4]; 0% cyclodextrin, Citrate pH 5.0, final pH 5.0) was 600 µg/mL. For the same molecule, the “concentration of 2-IB” value ([4]; 0% cyclodextrin, WFI, final pH 6.5) was 400 µg/mL, the “concentration of 2-IB” value ([4]; 2.5% HP-CD, Citrate pH 4.0, final pH 4.2) was 2500 µg/mL and the “concentration of 2-IB” value ([4]; 2.5% HP-CD, Citrate pH 5.0, final pH 5.1) was 900 µg/mL. The “concentration of 2-IB” value ([4]; 2.5% HP-CD, WFI, final pH 6.5) was 500 µg/mL, the “concentration of 2-IB” value ([4]; 2.5% SBE-CD, Citrate pH 4.0, final pH 4.3) was 3700 µg/mL and the “concentration of 2-IB” value ([4]; 2.5% SBE-CD, Citrate pH 5.0, final pH 5.0) was 1900 µg/mL. The “concentration of 2-IB” value ([4]; 2.5% SBE-CD, WFI, final pH 6.3) was 700 µg/mL, the “concentration of 2-IB” value ([4]; 5% HP-CD, Citrate pH 4.0, final pH 4.3) was 3000 µg/mL and the “concentration of 2-IB” value ([4]; 5% HP-CD, Citrate pH 5.0, final pH 5.1) was 1200 µg/mL. For the same molecule, the “concentration of 2-IB” value ([4]; 5% HP-CD, WFI, final pH 6.5) was 500 µg/mL, the “concentration of 2-IB” value ([4]; 5% SBE-CD, Citrate pH 4.0, final pH 4.4) was 5500 µg/mL and the “concentration of 2-IB” value ([4]; 5% SBE-CD, Citrate pH 5.0, final pH 5.1) was 2900 µg/mL. For the same molecule, the “concentration of 2-IB” value ([4]; 5% SBE-CD, WFI, final pH 6.5) was 1000 µg/mL, the “concentration of 2-IB” value ([4]; 10% HP-CD, Citrate pH 4.0, final pH 4.5) was 4100 µg/mL and the “concentration of 2-IB” value ([4]; 10% HP-CD, Citrate pH 5.0, final pH 5.2) was 1600 µg/mL. For the same molecule, the “concentration of 2-IB” value ([4]; 10% HP-CD, WFI, final pH 6.5) was 600 µg/mL, the “concentration of 2-IB” value ([4]; 10% SBE-CD, Citrate pH 4.0, final pH 4.6) was 8000 µg/mL and the “concentration of 2-IB” value ([4]; 10% SBE-CD, Citrate pH 5.0, final pH 5.1) was 4600 µg/mL.
